Results on one sequence are retold here after article PMC9411606, “Control cell migration by engineering integrin ligand assembly” (Nature Communications, 2022).

Data set [1] relates to paxillin Y118 phosphorylation in HuH-7 cells. The experiment in a line: Western blotting Paxillin / pY118 Paxillin. Type of data set: cell-based, human. As for the experimental part: Protein lysates were prepared in ice-cold RIPA lysis, and extraction buffer (Thermo Scientific) supplemented with 1% Halt Protease Inhibitor (Thermo Scientific) and 1% Halt Phosphatase inhibitor (Thermo Scientific). Cells were scraped off from the culture surface using a cold plastic cell scraper, and the cell suspension was then gently transferred into a pre-cooled microcentrifuge tube and maintained on ice for 30 min with constant agitation before centrifuged at 21000 × g for 20 min. The supernatant was then transferred to a new tube, and the protein concentration of the supernatant was quantified according to the Pierce™ BCA Protein Assay Kit (Thermo Scientific). The rest of the supernatant was mixed with 4x laemmli sample buffer (Bio-Rad) in a 1:3 ratio and boiled at 100 °C for 10 min. Lysates can be aliquoted and stored at −80 °C freezer. When running the gel, 30 μg of protein was loaded into each well of the SDS-PAGE gels, along with a molecular weight marker (Bio-Rad). The gel was run for 2 hr at constantly 100 V to separate the proteins based on the molecular weight. The proteins were then transferred from the SDS-gel to a PVDF membrane (Bio-Rad) using a Transfer-blot turbo system (Bio-Rad). Once the membranes were blocked with Blocking One P solution (Nacalai) for 20 min at room temperature with gentle shaking, they were probed with antibodies against GAPDH (6C5, ab8245, Abcam, 1:1000), integrin beta 1 (12G10, ab30394, Abcam, 1:100), integrin alpha 3 (ASC-1, MA5-28565, Invitrogen, 1:100), integrin alpha 6 (EPR18124, ab191551, Abcam, 1:200), Phospho-Myosin Light Chain 2 (Thr18/Ser19)(pMLC, #3647, Cell Signaling Technology, 1:200) diluted in Tris-Buffered Saline containing 0.1% Tween-20 and 5% Blocking one P solution and the membrane was incubated in the dark for overnight at 4 °C with gentle shaking. The unbounded antibodies were washed out with tris-buffered saline (TBS) containing 0.1% Tween-20 (TBS- T) for 10 min for at least 6 times. […] Protein bands were quantified by measuring peak areas using ImageJ. […]

Data set [2] can be described thus: Circular dichroism (CD) spectroscopy of peptide assemblies. Type of data set: physicochemical. The following applies: 100 µM, aqueous, 0.5 mm path. As for the experimental part:
CD spectra of the peptide assemblies in aqueous solutions were recorded under the nitrogen atmosphere using a spectrophotometer JASCO J-820 (Jasco, Japan). A quartz cuvette with 0.5 mm path length was used as a sample container. Continuous scanning mode is applied. And each sample is scanned three times to obtain an averaged spectrum.

Setting [3] is: relative to Ctrl = 1, 12 hr, representative blot.

“FFFIKLLI [assembling ligand: FFF coupled to the N-terminus of IKLLI; self-assembles into nanofilaments]”: the “paxillin Y118 phosphorylation” value in data set [1] (HuH-7, 12 hr, n = 9) was “reduction”. In data set [1] (setting [3]), this sequence gave a Paxillin band of 1.01 and a pY118Paxillin band of 0.34. In addition, in data set [2], the “secondary structure of self-assembly” value is on record as “random coil structure”.
